Assay results as given in patent US7666996B2, “Casein derived peptides and uses thereof” (priority 2000, dated 2010).

Legend:
[1] = tested on: Non-Obese Diabetic (NOD) mice; assay: Glucosuria in Non-Obese Diabetic (NOD) mice; type: in vivo; conditions: for Healthy/Total (sugar not detected in urine): female NOD mice, 100 μg synthetic peptide once weekly for 5 weeks, evaluated after 25 weeks; for Urine Sugar: individual healthy NOD mice, after 25 weeks
Experimental: Juvenile (Type I, IDDM) diabetes in Non-Obese Diabetic (NOD) mice:
Peptides derived from natural casein: NOD mice are a commonly used model for research of autoimmune disease and human Juvenile Diabetes. Six week old female NOD mice received either one or two injections per week of 100 μg of peptides derived from natural casein, for a total of 5 or 10 treatments. Control mice received no treatment. The severity of disease was determined according to glucosuria, which was measured using Combi test sticks [Gross, D. J. et al (1994), Diabetology, 37:1195]. Results were expressed as the percent of glucosuria-free mice in each sample over a 365-day period.
Synthetic peptides derived from casein: In another experiment, 6 week old female NOD mice received one injection per week of 100 μg of Synthetic peptides derived from casein for a total of 5 treatments. Control mice received no treatment. Results were expressed as the number of healthy mice in the various treated groups.

[2] = tested on: Non-Obese Diabetic (NOD) mice; assay: Intraperitoneal Glucose Tolerance Test (IPGTT) in NOD mice; type: in vivo; conditions: healthy NOD mice after 25 weeks
Experimental: Intraperitoneal Glucose Tolerance Test (IPGTT): The glucose tolerance test is the definitive method for investigating glucose metabolism and diabetic tendencies in mammals. Twenty five (25) weeks after receiving Synthetic peptides derived from casein, response to a glucose load was assessed with an intraperitoneal glucose tolerance test. Glucose injection consisted of 1 g/kg body weight. Glycemic values were determined from blood drawn prior to test (0 minutes) and 60 minutes after loading.

Sup-T1 cells = assay: Sup-T1 lymphocyte proliferation (cell counts); type: cell-based, human; conditions: data not shown
Experimental: [^3H]-thymidine incorporation test: In order to test the effect of peptides derived from natural casein on T cell proliferation, several concentrations of peptides derived from natural casein (10 mg/ml stock in RPMI) were added to Sup-T1 cell cultures in 96 flat bottom microwell plate (5000 cells/well), as described for HIV-1 infection in Sup-T1 cells. Cells were counted and their viability was determined by trypan blue dye exclusion. They were pulsed with [^3H]-thymidine at each time point (3, 7, 10 and 14 days) for 18 hours (over night) and harvested on glass fiber filters for radioactivity reading (Incorporation of [^3H]-thymidine into cellular DNA is proportional to degree of cell proliferation).

human bone marrow cells = assay: Colony assays in cultured human bone marrow cells (CFU-GM, MK, BFU-E, CFU-GEMM); type: cell-based; conditions: 100 μg/ml synthetic peptide in the presence of EPO
Experimental: Proliferation of megakaryocyte- and erythroid forming cells from human bone marrow and cord blood cells: A sample of bone marrow from an apparently healthy human being was processed by density gradient separation using Histopaque-107 (Sigma Diagnostics) to obtain a purified population of mononuclear cells (MNC). Colony assays were performed in a plating medium containing final concentrations of 0.92% methyl cellulose (4000 centripase powder, Sigma Diagnostic), rehydrated in Iscoves modified Dulbecco's medium containing 36 mM sodium bicarbonate (Gibco), 30% fetal bovine serum (FBS) (Hyclone), 0.292 mg/ml glutamine, 100 units per ml penicillin and 0.01 mg per ml streptomycin (Biological Industries, Beit Haemek). Cord blood from normal births was collected and prepared as mentioned above.
Colony assay medium containing 10^5 MNC per ml was plated in triplicate wells within a 24 well tissue culture plate (Greiner), 0.33 ml per well. The cultures were incubated at 37° C. in 5% CO2, 95% air and 55% relative humidity with or without peptides derived from natural casein or synthetic peptides derived from casein, at the indicated concentrations. Plates were scored after 14 days for colonies containing more than 50 cells. […]

[3] = tested on: murine bone marrow progenitor cells; assay: CFU-GM colony formation with IL-3 and G-CSF, murine bone marrow; type: cell-based
Experimental: Cells were scored in the macroscopic colonies grown from murine bone marrow cells prepared similarly to the CFU-GEMM colonies previously described. Cells were incubated with hematopoietic factors cytokine (IL-3) and colony stimulating factor (G-CSF), and 25 μg or more of synthetic peptides derived from casein (J), representing amino acids 1-22 of α-S1 casein, or 30-4, representing amino acids 1-6 of α-S1 casein, for 14 days, individually or in combination. The stimulation of colony formation (CFU) is expressed as the number of myeloid colonies in 10^5 plated MNCs.
Synthetic peptides derived from αS1-casein stimulate Granulopoietic (GM) cell proliferation in CFU-GM: As mentioned hereinabove, formation and expansion of CFU-GM (Granulocyte and Macrophage) colonies, and CFU-GEMM (Granulocyte, Erythroid, Macrophage and Megakaryocyte) colonies constitute one of the early events in the differentiation of hematopoietic progenitor cells in the bone marrow.

[4] = tested on: human bone marrow progenitor cells; assay: CFU-GM colony formation with IL-3 and G-CSF, human bone marrow; type: cell-based; conditions: 100 μg/ml, 14 days
Experimental: Cells were scored in the macroscopic colonies grown from human bone marrow cells prepared similarly to the CFU-GEMM colonies previously described. Cells were incubated with hematopoietic factors cytokine (IL-3) and colony stimulating factor (G-CSF), and 25 μg or more of synthetic peptides derived from casein: peptide J, representing amino acids 1-22 of α-S1 casein. Exposure of the human bone marrow progenitor cells to peptides derived from casein was for 14 days. Stimulation of colony formation (CFU) is expressed as the number of myeloid colonies in 10^5 plated MNCs.
A similar effect of synthetic peptides derived from αS1 casein was observed on the proliferation of granulocytes and macrophages from human bone marrow progenitor cells. […] (FIG. 20). Thus, synthetic peptides derived from αS1 casein or combinations thereof are effective in augmenting the effect of granulopoitic factors such as G-CSF on bone marrow hematpoietic progenitor cell differentiation and expansion.

[5] = tested on: irradiated, bone marrow transplanted mice; assay: Leukocyte and platelet reconstitution in bone marrow transplant recipient mice; type: in vivo; conditions: for enhancement of platelet counts over control mice: 3×10^6 cells, 10 days post-transplantation
Experimental: Leukocyte and platelet reconstitution in bone marrow transplant recipient Mice: BALB/c mice were sub-lethally irradiated at a source to skin distance of 70 cm, dosage of 50 cGy per minute, for a total of 600 cGy. The irradiated mice were […] casein, synthetic peptides derived from casein (13-26 amino acids, see Table 3 above), or human serum albumin (controls), following a double-blinded protocol. Leukocyte reconstitution was determined according to cell count in peripheral blood collected at indicated intervals from 6 to 12 days post treatment. Platelet reconstitution was determined by cell count in blood collected from the retro orbital plexus, into EDTA-containing vials, at indicated intervals from day 6 to day 15 post treatment. […]
In a third series of experiments, the mice were irradiated (800 cGy), reconstituted and injected intraperitoneally with 1.0 mg synthetic peptides derived from casein (peptides 3a and 4P, representing the first 6 and 12 amino acids of the N terminus of αS1 casein, respectively—see Table 3 above) daily, on days 4, 5, 6 and 7 post-transplantation. Platelet reconstitution was assayed at 10 and 12 days post-transplantation.
In a fourth series of experiments, F1 mice were irradiated (750 cGy), reconstituted with syngeneic bone marrow, and injected intravenously 24 hours later with 1 mg per mouse of synthetic peptides derived from casein representing amino acids 1-22 of the N terminus of αS1 casein. In addition, 2 (two) groups of mice were treated each with a natural fraction of αS1 casein position 1-23, and a fraction of peptides derived from natural κ-casein, representing amino acid coordinates 106-169 of κ-casein (SEQ ID NO: 27). WBC counts were conducted on days 5, 7, 10 and 12 post-transplantation.

[6] = tested on: murine bone marrow progenitor cells; assay: CFU-GEMM colonies from murine bone marrow cells, differential counts; type: cell-based
Experimental: Proliferation of megakaryocytes in multipotential colonies (CFU-GEMM) from murine bone marrow cells: Primary bone marrow cells (1×10^5 per ml) from 8-12 week-old C3H/HeJ […], 95% air, at 37° C. The medium, appropriate for the growth of multipotential colonies (CFU-GEMM), contained 1% BSA (Sigma), 10^−4 M thioglycerol (Sigma), 2.8×10^−4 M human transferrin (TF, Biological industries, Israel), 10% WEHI-CM as a source of IL-3 and 2 units per ml erythropoietin (rhEPO, R & D Systems, Minneapolis). […] They were picked with a micropipette, cytocentrifuged and stained with May-Grunwald-Giemsa for differential counts. At least 700 cells were counted for each preparation.
Proliferation of Dendritic cells in CFU-GEMM: Multipotent (CFU-GEMM) colonies grown from primary bone marrow cells as described for the assay of megakaryocyte proliferation above were collected, stained and counted for dendritic cells. At least 700 cells were counted for each preparation.
Proliferation of Plasma cells in CFU-GEMM: Multipotent (CFU-GEMM) colonies grown from primary bone marrow cells as described for the assay of megakaryocyte proliferation above were collected, stained and counted for plasma cells. At least 700 cells were counted for each preparation.
Proliferation of Macrophage Cells in CFU-GEMM: Multipotent (CFU-GEMM) colonies grown from primary bone marrow cells as described for the assay of megakaryocyte proliferation above were collected, stained and counted for macrophage cells. At least 700 cells were counted for each preparation.
Proliferation of Red Blood Cells in CFU-GEMM: Multipotent (CFU-GEMM) colonies grown from primary bone marrow cells as described for the assay of megakaryocyte proliferation above were collected, stained and counted for red blood cells. At least 700 cells were counted for each preparation.
Proliferation of Polymorphonuclear Cells (PMN) in CFU-GEMM: Multipotent (CFU-GEMM) colonies grown from primary bone marrow cells as described for the assay of megakaryocyte proliferation above were collected, stained and counted for polymorphonuclear cells. […]

| Sequence | prevention of glucosuria (in words) ([1]; 100 μg once weekly for 5 weeks, 25 weeks) | Healthy/Total (sugar not detected in urine) [1] | Urine Sugar [1] | IPGT test outcome (in words) [2] | increase in lymphocyte cell number in infected cells (Sup-T1 cells; 250 μg per ml) [%] | increase in lymphocyte cell number in infected cells (Sup-T1 cells; 500 μg per ml) [%] | proliferation of erythroid cell precursors (BFU-E colonies) vs EPO alone (human bone marrow cells) | myelocyte formation with G-CSF and IL-3 (in words) ([3]; 25 μg or more, 14 days) | increase in proliferation of granulocytes ([3]; in the presence of G-CSF) [%] | enhancement of granulopoietic stimulating effect of G-CSF (myelocyte formation) [4] [%] | peripheral white blood cell counts, day 10 ([5]; BALB/c, 600 cGy, 1 mg per mouse intraperitoneal, control 1.67) | peripheral white blood cell counts, day 12 ([5]; BALB/c, 600 cGy, 1 mg per mouse intraperitoneal, control 4.64) | white blood cell reconstitution (in words) ([5]; F1 mice, 750 cGy, 1 mg i.v., days 5 and 7 post-reconstitution) | enhancement of platelet counts over control mice ([5]; F1 mice, 750 cGy, 1 mg i.v.) [%] | enhancement of platelet counts over control mice ([5]; F1 mice, 750 cGy, 1 mg i.v., listed as amino acids 1-22 of αS1-casein) [%] | effect on Early (E.MK) megakaryocyte formation (in words) ([6]; 25 μg or more, 14 days) | increase in total megakaryocyte proliferation over controls ([6]; synthetic peptide, FIG. 21) [%] |
| --- | --- | --- | --- | --- | --- | --- | --- | --- | --- | --- | --- | --- | --- | --- | --- | --- | --- |
| RPKHPIKHQ [X, synthetic peptide, N-terminal 9 amino acids of αS1 casein] | highly effective | 3/5 | Negative | no evidence of abnormal glucose metabolism | 80 | 33 |  |  |  |  |  |  |  |  |  |  |  |
| RPKHPIKHQGLPQEVLNE [F, synthetic peptide, N-terminal 18 amino acids of αS1 casein] |  |  |  |  |  |  | one and one-half |  |  |  |  |  |  |  |  |  |  |
| RPKHPIKHQGLPQEVLNENLLR [J, synthetic peptide, amino acids 1-22 of α-S1 casein] |  | 3/5 | Negative |  |  |  |  | synergistic increase | 25 | > 50 | 2.74 ×10^6 cells per ml | 5.20 ×10^6 cells per ml | dramatic enhancement | > 25 | 34 | dramatic effect | 57 |
